Experimental data from patent US20240368139A1, “NOVEL MODULATORS OF EHMT1 AND EHMT2 AND THERAPEUTIC USE THEREOF” (Tango Therapeutics, Inc., priority 2021, published 2024).

Legend:
human EHMT1 982-1266 = molecular target: T1, human EHMT1 982-1266 (Homo sapiens, UniProt Q9H9B1); assay: EHMT1 enzyme assay on histone peptide substrate (3H-SAM SPA); conditions: EHMT1 IC50, recombinant human EHMT1 982-1266, histone peptide substrate
T1 sequence (Q9H9B1 982-1266): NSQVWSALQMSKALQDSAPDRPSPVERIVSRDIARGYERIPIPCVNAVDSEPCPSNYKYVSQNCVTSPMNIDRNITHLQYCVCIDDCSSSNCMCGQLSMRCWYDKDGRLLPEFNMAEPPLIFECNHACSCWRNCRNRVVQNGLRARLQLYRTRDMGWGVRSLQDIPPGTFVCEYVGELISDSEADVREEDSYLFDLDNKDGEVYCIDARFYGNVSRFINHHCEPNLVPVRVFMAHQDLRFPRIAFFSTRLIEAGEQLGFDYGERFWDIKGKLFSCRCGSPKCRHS

human EHMT2 913-1193 = molecular target: T2, human EHMT2 913-1193 (Homo sapiens, UniProt Q96KQ7); assay: EHMT2 enzyme assay on histone peptide substrate (3H-SAM SPA); conditions: EHMT2 IC50, recombinant human EHMT2 913-1193, histone peptide substrate
T2 sequence (Q96KQ7 913-1193): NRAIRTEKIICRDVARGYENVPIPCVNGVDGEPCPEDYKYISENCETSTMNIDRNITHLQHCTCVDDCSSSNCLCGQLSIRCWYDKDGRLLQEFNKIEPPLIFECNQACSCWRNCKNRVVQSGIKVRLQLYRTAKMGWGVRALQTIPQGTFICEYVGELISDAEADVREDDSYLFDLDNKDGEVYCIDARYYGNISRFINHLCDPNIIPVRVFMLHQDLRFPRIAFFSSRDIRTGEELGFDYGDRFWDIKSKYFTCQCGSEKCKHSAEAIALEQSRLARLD

H3K9me2 in HCT116 cells = assay: HCT116 H3K9me2 in-cell western assay; type: cell-based; conditions: Homo sapiens, HCT-116, 72 h, HCT116 cells, 72 hours incubation; read-out: H3K9me2 ICW IC50
In short: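 HCT116 cells (2,000/well) were treated for 72 h at 37° C, 5% CO2, with ten two-fold dilutions from 10 μM in duplicate. After PFA fixation, cells were stained overnight at 4° C with anti-H3K9me2, then with an 800 CW secondary plus DRAQ5.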

Row | IC50 (human EHMT1 982-1266) | IC50 (human EHMT2 913-1193) | IC50 (H3K9me2 in HCT116 cells) | SMILES
1 | < 100 nM | 100 to 500 nM | 100 to 500 nM | CNc1cc(C)nc(Nc2cc3c(c(C4=CCN(C)CCC4)c2)OC(F)(F)O3)n1 [Compound 156, N2-[2,2-difluoro-7-(1-methyl-2,3,4,7-tetrahydroazepin-5-yl)-1,3-benzodioxol-5-yl]-N4,6-dimethyl-pyrimidine-2,4-diamine]
2 | > 2000 nM | > 2000 nM | > 2000 nM | CNc1cc(C)nc(Nc2cc3c(c(C4=CCN(CCOC)CCC4)c2)OC(F)(F)O3)n1 [Compound 158, N2-[2,2-difluoro-7-[1-(2-methoxyethyl)-2,3,4,7-tetrahydroazepin-5-yl]-1,3-benzodioxol-5-yl]-N4,6-dimethyl-pyrimidine-2,4-diamine]
3 | < 100 nM | < 100 nM | < 100 nM | CNc1cc(C)nc(Nc2cc3c(c(C4=CCN(C)CCC4)c2Cl)OCCO3)n1 [Compound 165, N2-[6-chloro-5-(1-methyl-2,3,4,7-tetrahydroazepin-5-yl)-2,3-dihydro-1,4-benzodioxin-7-yl]-N4,6-dimethyl-pyrimidine-2,4-diamine]
4 | < 100 nM | 100 to 500 nM | < 100 nM | CNc1cc(C)nc(Nc2cc3c(c(C4=CCN(C)CCC4)c2F)OCC32CC2)n1 [Compound 171]
5 | < 100 nM | 100 to 500 nM | < 100 nM | CNc1cc(C)nc(Nc2cc3c(c(C4=CCN(C)CCC4)c2F)OCCC3(F)F)n1 [Compound 173]
6 | < 100 nM | < 100 nM | < 100 nM | CNc1cc(C)nc(Nc2cc3c(c(C4=CCNCCC4)c2F)OCCC3(F)F)n1 [Compound 174]
7 | < 100 nM | 100 to 500 nM | < 100 nM | CNc1cc(C)nc(Nc2cc3c(c(C4=CCNCCC4)c2F)OCC3(C)C)n1 [Compound 178]
8 | < 100 nM | 100 to 500 nM | 100 to 500 nM | CNc1cc(C)nc(Nc2cc3c(c(C4=CCN(C)CCC4)c2F)OCC3C)n1 (stereo not drawn) [Compound 181]
9 | < 100 nM | 100 to 500 nM | < 100 nM | CNc1cc(C)nc(Nc2cc3c(c(C4=C[C@@H](C)NCCC4)c2F)OCC3)n1 [Compound 182]
10 | < 100 nM | 100 to 500 nM | < 100 nM | CNc1cc(C)nc(Nc2cc3c(c(C4=C[C@H](C)NCCC4)c2F)OCC3)n1 [Compound 185]
11 | 100 to 500 nM | 500 to 2000 nM | 100 to 500 nM | CNc1cc(C)nc(Nc2c(F)c3c(c(C4=CCN(C)CCC4)c2F)OCC3)n1 [Compound 186]
12 | 100 to 500 nM | 500 to 2000 nM | 100 to 500 nM | CNc1cc(C)nc(Nc2cc3c(c(C4=CCNCCC4)c2OC)OCC3)n1 [Compound 192]
13 | < 100 nM | 100 to 500 nM | < 100 nM | CNc1nc(Nc2cc3c(c(C4=CCNCCC4)c2F)OCC3)nc(C)c1OC [Compound 194]
14 | < 100 nM | 100 to 500 nM | < 100 nM | CNc1cc(C)nc(Nc2cc3c(c(C4=CCN(C(C)C)CCC4)c2F)OCC3)n1 [Compound 195]
15 | 100 to 500 nM | 500 to 2000 nM | 100 to 500 nM | CNc1nc(Nc2cc3c(c(C4=CCN(C)CCC4)c2F)OCC3)nc(C)c1OC [Compound 196]
16 | 100 to 500 nM | 500 to 2000 nM | 100 to 500 nM | CNc1nc(Nc2cc3c(c(C4=CCNCCC4)c2F)OCCO3)nc(C)c1F [Compound 197]
17 | < 100 nM | 100 to 500 nM | 100 to 500 nM | CNc1cc(C)nc(Nc2cc3c(c(C4=CCNCCC4)c2O)OCC3)n1 [Compound 198]
18 | 100 to 500 nM | 500 to 2000 nM | 100 to 500 nM | CNc1cc(C)nc(Nc2cc3c(c(C4=CCN(CC(F)F)CCC4)c2F)OCC3)n1 [Compound 199]
19 | 100 to 500 nM | 500 to 2000 nM | 100 to 500 nM | CNc1cc(C)nc(Nc2cc3c(c(C4=CC(C)N(C)CCC4)c2F)OCC3)n1 (stereo not drawn) [Compound 200]
20 | < 100 nM | < 100 nM | < 100 nM | CNc1cc(C)nc(Nc2cc3c(c(C4=CCN(C)CCC4)c2F)OCO3)n1 [Compound 203]
